Data reported in publication PMC9736275 (International Journal of Molecular Sciences, 2022).

Target: T1, ATA-Gze (Fusarium graminearum, UniProt I1RDQ2)
T1 construct: gene FGRAMPH1_01T04291
T1 sequence (I1RDQ2 1-325): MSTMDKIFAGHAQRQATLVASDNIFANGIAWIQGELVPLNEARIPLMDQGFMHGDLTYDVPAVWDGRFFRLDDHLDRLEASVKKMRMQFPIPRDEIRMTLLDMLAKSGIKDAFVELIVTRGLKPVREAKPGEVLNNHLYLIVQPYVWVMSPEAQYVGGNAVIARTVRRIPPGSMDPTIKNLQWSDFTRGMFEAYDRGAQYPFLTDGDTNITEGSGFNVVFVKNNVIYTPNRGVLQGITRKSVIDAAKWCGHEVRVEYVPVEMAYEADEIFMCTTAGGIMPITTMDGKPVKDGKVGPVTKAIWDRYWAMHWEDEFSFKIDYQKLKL

Question: How did the Km turn out when `C[C@@H](N)c1ccccc1` [(R)-1-phenylethylamine] was run?
Answer: The Km was “The kinetic parameters are shown in Table S3 and Figure S1”.
